Peptide text beside a SMILES is read from it.
Legend:
E. coli (KCTC 1682) = assay type: cell-based, Escherichia coli; conditions: KCTC 1682, 16 h
From the text: (§1) E. coli (KCTC 1682) was obtained from the Korean Collection for Type Cultures (KCTC, Jeongeup, Republic of Korea), and Acinetobacter baumannii (KCCM 40203) and Pseudomonas aeruginosa (KCCM 11328) from the Korea Culture Center of Microorganisms (KCCM, Seoul, Republic of Korea). Klebsiella pneumoniae (NCCP 16054), colistin-resistant E. coli NMA 1557 (ColREC 1557), NMS 12 (ColREC 12), and colistin-resistant A. baumannii NMS 1915 (ColRAB 1915), as well as colistin-resistant K. pneumoniae NMS 139 (ColRKP 139), were obtained from the National Institute of Health Multidrug Resistant Bacteria Specialized Pathogen Resources Bank (Osong, Republic of Korea).
(§2) The antibacterial abilities of the peptides (T. ni cecropin, cecropin A, polymyxin B, colistin, and melittin) were determined using the broth dilution method as previously reported. The peptides dissolved at 10 mg/mL in deionized water were serially diluted from 64 μM to 0.5 μM in 96-well plates using Mueller–Hinton (MH) broth, and bacteria cultured to exponential growth were added at 2 × 10^5 cells/mL. The group of bacteria that grew untreated in the broth was set as the positive control, and the uninoculated broth as the negative control. Dissolved peptides are colorless and equal to the OD value of the medium only. After 16 h incubation at 37 °C, the absorbance at 600 nm was measured using a SpectraMAX microplate reader (Molecular Devices, San Jose, CA, USA).

[1] = system: colistin-resistant E. coli NMA 1557 (ColREC 1557); assay type: cell-based, Escherichia coli; conditions: MH broth, 2 × 10^5 cells/mL, 16 h, 37 °C, OD600, >95% killing
From the text: as §1, §2

[2] = system: colistin-resistant E. coli NMS 12 (ColREC 12); assay type: cell-based, Escherichia coli; conditions: MH broth, 2 × 10^5 cells/mL, 16 h, 37 °C, OD600, >95% killing
From the text: as §1, §2

[3] = system: ColREC 1557-stimulated RAW 264.7 cells; assay: IL-6 secretion in ColREC 1557-infected macrophages, ELISA; assay type: cell-based, mouse; conditions: 1.3 μM peptide, 1 h before ColREC 1557 infection
Procedure: Interleukin-6 (IL-6)-specific enzyme-linked immunosorbent assays (ELISA; R&D Systems, Minneapolis, MN, USA) were performed according to the method specified by the manufacturer. Briefly, cell culture supernatants were added to immune plates treated with the capture antibody, followed by the detection antibody and streptavidin-horseradish peroxidase. For each step, the plates were washed twice with PBS containing 0.05% Tween 20. The plates were incubated with tetramethylbenzidine substrate (Invitrogen, Carlsbad, CA, USA), and the reaction was stopped with 2 N H2SO4 to measure absorbance at 450 nm. A standard graph of each marker was plotted and quantified.
To investigate the inflammatory response induced by ColREC 1557, RAW 264.7 cells (1 × 10^5 cells/well) were treated with various concentrations of peptide (0.6 to 10 μM) 1 h before bacterial infection. The control was an untreated cell. ColREC 1557 that had been cultured in LB broth overnight and sub-cultured to the exponential phase were harvested, suspended in DMEM, and used to infect RAW 264.7 cells to a final concentration of 1 × 10^5 cells/well. Subsequent nitrite and IL-6 detection was performed as described in Section 2.15.

[4] = system: Acinetobacter baumannii (KCCM 40203); assay type: cell-based; conditions: KCCM 40203, 16 h
From the text: as §1, §2

[5] = system: Klebsiella pneumoniae (NCCP 16054); assay type: cell-based; conditions: NCCP 16054, 16 h
From the text: as §1, §2

[6] = system: Pseudomonas aeruginosa (KCCM 11328); assay type: cell-based; conditions: KCCM 11328, 16 h
From the text: as §1, §2

L-929 cells = assay: Cytotoxicity, WST-8; assay type: cell-based, mouse; conditions: up to 100 μM peptide, 24 h
Procedure: (§3) Murine macrophage RAW 264.7 cells and mouse fibroblast L-929 cells were used for research and were purchased from the Korea Cell Line Bank (Seoul, Republic of Korea). Both cells were cultured in Dulbecco’s Modified Eagle’s Medium (DMEM; Welgene, Gyeongsan, Republic of Korea) supplemented with 10% fetal bovine serum and 1% antibiotics (penicillin/streptomycin) at 37 °C in the presence of 5% CO2. To measure the cytotoxicities of peptides against RAW 264.7 cells and L-929 cells, both cell lines were seeded at a density of 1 × 10^5 cells/well in a 96-well plate, to which each concentration of peptide solution (from 1.6 μM to 100 μM) was added, followed by incubation for 22 h. Subsequently, WST-8 (Biomax Co., Ltd., Guri, Republic of Korea) was added at 10% volume of the final solution, and the mixture was incubated for an additional 2 h. Absorbance was measured at 450 nm. Percentages were calculated based on untreated cells.

RAW 264.7 cells = assay: Cytotoxicity, WST-8; assay type: cell-based, mouse; conditions: 100 μM peptide, 24 h
Procedure: as §3

## CC[C@H](C)CCCCC(=O)N[C@@H](CCN)C(=O)N[C@H](C(=O)N[C@@H](CCN)C(=O)N[C@H]1CCNC(=O)[C@H]([C@@H](C)O)NC(=O)[C@H](CCN)NC(=O)[C@H](CCN)NC(=O)[C@H](CC(C)C)NC(=O)[C@@H](CC(C)C)NC(=O)[C@H](CCN)NC1=O)[C@@H](C)O [colistin] (HELM PEPTIDE1{[CC[C@H](C)CCCCC(=O)[*:2]].[Dab].T.[Dab].[Dab].[Dab].[dL].L.[Dab].[Dab].T}$PEPTIDE1,PEPTIDE1,5:R3-11:R2$$$V2.0; N-terminus assumed; bridges inferred)
E. coli (KCTC 1682)
  Minimal Inhibitory Concentration: 0.25 µM
[1]
  Minimal Inhibitory Concentration: 8 µM
[2]
  Minimal Inhibitory Concentration: 4 µM
[3]
  inhibition of IL-6: 18.4%
[4]
  Minimal Inhibitory Concentration: 0.25 µM
[5]
  Minimal Inhibitory Concentration: 0.25 µM
[6]
  Minimal Inhibitory Concentration: 1 µM
L-929 cells
  viability / survival rate: 95.0%
RAW 264.7 cells
  cell viability: 70.1%
